Here are results for one compound from patent US12391683B2, “Therapeutic compounds and methods” (Actio Biosciences, Inc., priority 2022, dated 2025).

The test system of one data set is Hepatocytes. The data set is described as follows: Hepatocytes predicted clearance, rat.
The target of the next data set is T1, TRPM2 channels (Homo sapiens, UniProt O94759).
T1 construct: expressed in transfected cells; host or cells: HEK293 (transient)
The data set is described as follows: TRP Family FLIPR Assay, TRPM2. To be noted: HEK293 cells (transient). In kind it is cell-based. The procedure:
The compound of Example 5 was tested for selectivity against a panel of Human TRP family ion channels in a TRP Family FLIPR Assay as described below. • 1. TRPC3 channels (human TRPC3 variant 1 gene, expressed in HEK293 cells). • 2. TRPC4 channels (human TRPC4 gene, expressed in HEK293 cells). • 3. TRPC5 channels (human TRPC5 gene, expressed in HEK293 cells). • 4. TRPC6 channels (human TRPC6 gene, expressed in HEK293 cells). • 5. TRPM2 channels (human TRPM2 gene, transiently expressed in HEK293 cells). • 6. TRPM3 channels (human TRPM3 gene, transiently expressed in HEK293 cells). • 7. TRPM4 channels (human TRPM4 gene, expressed in CHO cells). • 8. […]
Data acquisition was performed via the FLIPR Control software supplied with the FLIPR System (MDS-AT) and data was analyzed using Microsoft Excel (Microsoft Corp., Redmond, WA) or GraphPad Prism. […]
[formula] where Base is the response at low concentrations of test article, Max is the maximum response at high concentrations, xhalf the EC50, or IC50, the concentration of test article producing either half-maximal activation or inhibition, and rate is the Hill coefficient. […] No assumptions about the fit parameters was made; the fit parameters were determined by the algorithm.
The effect of each test article was evaluated at eight (8) concentrations: 0.003, 0.01, 0.03, 0.1, 0.3, 1, 3 and 10 μM, n≤4 wells/concentration). […]

T1 sequence (O94759 whole entry): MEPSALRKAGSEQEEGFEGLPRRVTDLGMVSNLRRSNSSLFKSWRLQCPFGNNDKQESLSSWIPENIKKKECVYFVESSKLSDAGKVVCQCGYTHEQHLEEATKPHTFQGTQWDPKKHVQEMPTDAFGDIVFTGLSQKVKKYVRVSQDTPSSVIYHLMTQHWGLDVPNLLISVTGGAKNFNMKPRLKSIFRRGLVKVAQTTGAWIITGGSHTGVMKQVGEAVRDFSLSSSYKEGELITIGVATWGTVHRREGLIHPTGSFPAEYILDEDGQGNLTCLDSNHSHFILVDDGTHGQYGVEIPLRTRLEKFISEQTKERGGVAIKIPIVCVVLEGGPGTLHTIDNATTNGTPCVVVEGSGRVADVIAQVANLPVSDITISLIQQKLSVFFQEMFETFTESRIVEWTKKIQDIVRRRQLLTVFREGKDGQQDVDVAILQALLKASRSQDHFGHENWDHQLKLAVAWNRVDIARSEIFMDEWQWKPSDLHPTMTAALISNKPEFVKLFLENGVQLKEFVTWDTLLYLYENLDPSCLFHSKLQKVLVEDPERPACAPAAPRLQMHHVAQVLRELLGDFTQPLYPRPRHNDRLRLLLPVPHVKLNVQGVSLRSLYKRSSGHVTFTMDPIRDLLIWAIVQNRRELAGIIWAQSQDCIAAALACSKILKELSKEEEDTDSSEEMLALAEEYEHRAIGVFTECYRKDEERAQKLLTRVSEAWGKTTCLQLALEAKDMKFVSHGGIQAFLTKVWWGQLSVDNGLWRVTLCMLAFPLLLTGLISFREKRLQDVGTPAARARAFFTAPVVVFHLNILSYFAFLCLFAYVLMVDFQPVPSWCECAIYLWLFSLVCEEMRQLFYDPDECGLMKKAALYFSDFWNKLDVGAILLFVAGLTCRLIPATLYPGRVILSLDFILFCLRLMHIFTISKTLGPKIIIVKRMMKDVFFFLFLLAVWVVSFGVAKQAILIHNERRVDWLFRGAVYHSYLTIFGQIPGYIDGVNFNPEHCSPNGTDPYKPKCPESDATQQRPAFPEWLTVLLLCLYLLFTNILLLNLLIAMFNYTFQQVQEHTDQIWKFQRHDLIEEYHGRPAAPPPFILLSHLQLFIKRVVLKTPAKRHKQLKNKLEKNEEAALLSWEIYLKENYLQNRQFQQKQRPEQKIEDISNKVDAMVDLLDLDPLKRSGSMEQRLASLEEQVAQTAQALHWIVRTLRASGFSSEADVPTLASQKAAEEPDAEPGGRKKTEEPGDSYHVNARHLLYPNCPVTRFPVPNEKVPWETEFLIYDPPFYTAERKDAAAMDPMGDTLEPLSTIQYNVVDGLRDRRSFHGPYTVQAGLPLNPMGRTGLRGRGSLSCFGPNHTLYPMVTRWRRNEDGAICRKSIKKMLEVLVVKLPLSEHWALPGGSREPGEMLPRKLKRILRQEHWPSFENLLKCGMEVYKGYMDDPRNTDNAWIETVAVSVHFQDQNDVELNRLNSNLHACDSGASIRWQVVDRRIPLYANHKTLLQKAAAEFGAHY

`CC(C)(O)c1cnc(N2C[C@@]3(CC[C@@H](F)[C@](C)(Cn4cnc5ccc(C#N)cc54)C3)OC2=O)cn1` (single isomer, unassigned) [Example 5]: the “Hepatocytes predicted clearance in rat” value in the data set on Hepatocytes was 7.67 mL/min/kg. For the same compound, the EC50 at TRPM2 channels (agonist mode, vs EMAX of H2O2 333 μM, read-out: EC50 hTRPM2) is above 10 µM. Further, the IC50 at TRPM2 channels (antagonist mode, activated with 300 μM H2O2, 0.003-10 μM, read-out: IC50 hTRPM2) was above 10 µM.

For orientation: EC50 means the concentration at which the effect is half-maximal. What is called IC50 is the midpoint of a concentration-inhibition curve.
